The source of these data is ChEMBL document CHEMBL4715767, “Pterin-7-carboxamides as a new class of aldose reductase inhibitors” (Bioorg Med Chem Lett, 2016).

Structures are written as SMILES. pIC50: −log10 of the molar value.

One assay has as its target T1, Aldo-keto reductase family 1 member B1 (Homo sapiens, UniProt P15121). The assay is described as follows: Inhibition of recombinant human ALR2 at 10.5 mM using D,L-glyceraldehyde and NADPH as substrate preincubated for 3 mins followed by substrate addition and measured for 3 mins by spectrophotometric analysis relative to control. The note with it: time 6.0 min.
As to `Nc1nc2nc(C(=O)NCC(=O)N[C@@H](Cc3ccccc3)C(=O)O)cnc2c(=O)[nH]1`, the inhibition (as a rule, the percentage by which the read-out fell short of the control) was determined as 9%.

A further assay concerns the target T1, Aldo-keto reductase family 1 member B1. Put plainly: Inhibition of recombinant human ALR2 using D,L-glyceraldehyde and NADPH as substrate preincubated for 3 mins followed by substrate addition and measured for 3 mins by spectrophotometric analysis.
Details: not given
Take `Nc1nc2ncc(C(=O)O)nc2c(=O)[nH]1` [PTERIN-6-CARBOXYLIC ACID]: the IC50 result is on record as “Nd(Insoluble)”.

The assay is the same for the next values; noted with them: read-out: IC50.
Regarding `CC(C)C[C@H](NC(=O)c1cnc2c(=O)[nH]c(N)nc2n1)C(=O)O`, the pIC50 (as a rule, the IC50 on a negative log10 scale, so that one unit is a factor of ten) was 4.21. The same measure, in the same setting: under `Nc1nc2nc(C(=O)N[C@@H](C(=O)O)c3ccccc3)cnc2c(=O)[nH]1` stands 4.25; under `Nc1nc2nc(C(=O)NCCCCCC(=O)O)cnc2c(=O)[nH]1`, 5.40; under `CC(C)C[C@@H](NC(=O)c1cnc2c(=O)[nH]c(N)nc2n1)C(=O)O`, 4.01.

As for `Nc1nc2nc(C(=O)N[C@H](CO)C(=O)O)cnc2c(=O)[nH]1`, the pIC50 is 3.89. Turning to `Nc1nc2nc(C(=O)NCCCC(=O)O)cnc2c(=O)[nH]1`, the pIC50 is 4.59. `Nc1nc2nc(C(=O)N[C@@H](CCc3ccccc3)C(=O)O)cnc2c(=O)[nH]1`: the pIC50 is 4.60. Take `Nc1nc2ncc(CNc3ccc(C(=O)N[C@@H](CCC(=O)O)C(=O)O)cc3)nc2c(=O)[nH]1` [FOLIC ACID]: the pIC50 was 4.28. On the same count and under the same terms, to `Nc1nc2nc(C(=O)NCC(=O)O)cnc2c(=O)[nH]1` belongs 5.71. Same read-out and setting: to `CC[C@H](C)[C@H](NC(=O)c1cnc2c(=O)[nH]c(N)nc2n1)C(=O)O` belongs 4.16; to `Nc1nc2nc(C(=O)NCCCCC(=O)O)cnc2c(=O)[nH]1`, 4.93.

Consider `Nc1nc2nc(C(=O)N[C@H](C(=O)O)c3ccccc3)cnc2c(=O)[nH]1`, for which the pIC50 is 4.37. Same read-out and setting: under `Nc1nc2nc(C(=O)N[C@H](CCc3ccccc3)C(=O)O)cnc2c(=O)[nH]1` stands 4.38; under `Nc1nc2nc(C(=O)N[C@@H](CO)C(=O)O)cnc2c(=O)[nH]1`, 4.53. The same measure, in the same setting: under `Nc1nc2nc(C(=O)N[C@@H](Cc3ccc(O)cc3)C(=O)O)cnc2c(=O)[nH]1` stands 3.67; under `C[C@@H](NC(=O)c1cnc2c(=O)[nH]c(N)nc2n1)C(=O)O`, 4.14. On the same count and under the same terms, to `CC[C@@H](C)[C@@H](NC(=O)c1cnc2c(=O)[nH]c(N)nc2n1)C(=O)O` belongs 3.56. Consider `Nc1nc2nc(C(=O)O)cnc2c(=O)[nH]1`, for which the pIC50 was 4.58. Still for that read-out and setting: to `CC(C)[C@H](NC(=O)c1cnc2c(=O)[nH]c(N)nc2n1)C(=O)O` belongs 4.08; to `Nc1nc2nc(C(=O)N[C@H](Cc3ccccc3)C(=O)O)cnc2c(=O)[nH]1`, 4.17; to `Nc1nc2nc(C(=O)NCCC(=O)O)cnc2c(=O)[nH]1`, 4.76.

Consider `CC(C)[C@@H](NC(=O)c1cnc2c(=O)[nH]c(N)nc2n1)C(=O)O`, for which the pIC50 was 3.71.

For the compound `Nc1nc2nc(C(=O)N[C@H](Cc3ccc(O)cc3)C(=O)O)cnc2c(=O)[nH]1`, the pIC50 is 3.24. The same measure, in the same setting: to `Nc1nc2nc(C(=O)N[C@@H](Cc3ccccc3)C(=O)O)cnc2c(=O)[nH]1` belongs 4.34. Turning to `C[C@H](NC(=O)c1cnc2c(=O)[nH]c(N)nc2n1)C(=O)O`, the pIC50 was 4.91.
